Here are results for 45 compounds from patent US8791267B2, “Biaryl PDE4 inhibitors for treating inflammatory, cardiovascular and CNS disorders” (Decode Genetics EHF, priority 2007, dated 2014).

One experiment deals with PDE4B (Homo sapiens, UniProt Q07343). Description: In-vitro assay for PDE4 enzymes, real-time enzyme-coupled spectrophotometric assay, PDE4B Activity (Table 10). The format is biochemical.
Another experiment addresses PDE4 (Homo sapiens, UniProt Q08499). Briefly: In-vitro assay for PDE4 enzymes, real-time enzyme-coupled spectrophotometric assay (Table 9). The format is biochemical.
The mark [1] stands for this setting: human PDE4B (hPDE4B), enzyme-coupled spectrophotometric assay, read-out: PDE4B Activity, hPDE4B.
Where [2] appears, read: human PDE4D, activity class, Table 9, read-out: hPDE4D.

Where two headings read alike, the source gives them in different places.

Chain of PDE4 (Q08499 whole entry): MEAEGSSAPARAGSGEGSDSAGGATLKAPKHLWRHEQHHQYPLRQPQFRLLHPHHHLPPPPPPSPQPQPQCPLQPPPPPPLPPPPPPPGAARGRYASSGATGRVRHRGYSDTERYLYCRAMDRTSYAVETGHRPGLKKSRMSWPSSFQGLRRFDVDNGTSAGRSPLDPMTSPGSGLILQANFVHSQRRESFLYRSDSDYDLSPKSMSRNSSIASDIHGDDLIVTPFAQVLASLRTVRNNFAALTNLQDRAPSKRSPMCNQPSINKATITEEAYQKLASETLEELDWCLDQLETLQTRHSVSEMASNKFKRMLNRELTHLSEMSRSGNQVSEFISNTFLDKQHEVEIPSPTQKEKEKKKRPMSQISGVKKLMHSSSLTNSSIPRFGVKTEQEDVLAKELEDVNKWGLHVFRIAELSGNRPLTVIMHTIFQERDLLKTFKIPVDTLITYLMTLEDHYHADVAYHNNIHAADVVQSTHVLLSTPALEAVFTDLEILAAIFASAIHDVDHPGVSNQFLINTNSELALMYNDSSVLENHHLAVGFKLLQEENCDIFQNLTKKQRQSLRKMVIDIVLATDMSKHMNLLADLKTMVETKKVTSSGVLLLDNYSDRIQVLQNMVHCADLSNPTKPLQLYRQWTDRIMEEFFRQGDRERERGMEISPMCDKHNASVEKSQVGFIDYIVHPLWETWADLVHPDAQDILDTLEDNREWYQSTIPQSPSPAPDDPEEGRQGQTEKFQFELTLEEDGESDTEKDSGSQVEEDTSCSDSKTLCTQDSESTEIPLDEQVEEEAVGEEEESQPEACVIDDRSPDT
Chain of PDE4B (Q07343 whole entry): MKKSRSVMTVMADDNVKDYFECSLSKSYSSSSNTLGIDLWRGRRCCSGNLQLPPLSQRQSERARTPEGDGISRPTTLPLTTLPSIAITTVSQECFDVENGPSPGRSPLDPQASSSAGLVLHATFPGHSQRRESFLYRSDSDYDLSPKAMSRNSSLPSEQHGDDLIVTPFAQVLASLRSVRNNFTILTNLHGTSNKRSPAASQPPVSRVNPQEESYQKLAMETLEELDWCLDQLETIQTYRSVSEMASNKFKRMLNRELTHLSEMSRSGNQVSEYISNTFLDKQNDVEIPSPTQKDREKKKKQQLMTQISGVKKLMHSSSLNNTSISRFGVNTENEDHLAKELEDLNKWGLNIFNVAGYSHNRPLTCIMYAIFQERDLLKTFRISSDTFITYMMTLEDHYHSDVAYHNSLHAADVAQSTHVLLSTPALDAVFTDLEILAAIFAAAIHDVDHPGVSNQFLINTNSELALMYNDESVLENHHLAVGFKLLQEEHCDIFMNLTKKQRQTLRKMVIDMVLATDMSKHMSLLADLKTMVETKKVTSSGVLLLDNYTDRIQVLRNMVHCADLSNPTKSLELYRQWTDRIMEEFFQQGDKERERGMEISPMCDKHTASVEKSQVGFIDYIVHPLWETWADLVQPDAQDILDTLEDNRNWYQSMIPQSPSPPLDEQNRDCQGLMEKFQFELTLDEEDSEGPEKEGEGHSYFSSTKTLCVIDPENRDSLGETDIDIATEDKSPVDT

Regarding `COc1ccc(CN2C(=O)CC[C@H]2CN)cc1-c1cccc([N+](=O)[O-])c1` [P-155, (S)-5-Aminomethyl-1-(6-methoxy-3′-nitro-biphenyl-3-ylmethyl)-pyrrolidin-2-one], the IC50 is 5 to 20 µM at PDE4B (setting [1]) and 20 to 40 µM on PDE4 (setting [2]).

For the compound `COc1ccc(CN2C(=O)CC[C@@H]2CN)cc1-c1cccc([N+](=O)[O-])c1` [P-156, (R)-5-Aminomethyl-1-(6-methoxy-3′-nitro-biphenyl-3-ylmethyl)-pyrrolidin-2-one], the IC50 at PDE4B (setting [1]) and on PDE4 (setting [2]) was less than 5 µM throughout.

`COc1ccc(Cc2ccc(NC(=O)CCN)cc2)cc1-c1cccc([N+](=O)[O-])c1` [P-159]: the IC50 at PDE4B (setting [1]) and on PDE4 (setting [2]) was less than 5 µM in each case.

In the case of `COc1ccc(Cc2cccc(CN)c2)cc1-c1cccc([N+](=O)[O-])c1` [P-161, 3-(6-Methoxy-3′-nitro-biphenyl-3-ylmethyl)-benzylamine], the IC50 on PDE4B (setting [1]) and at PDE4 (setting [2]) was 5 to 20 µM throughout.

With `COc1ccc(CN2CCCC2=O)cc1-c1ccccc1` [P-162, 1-(6-Methoxy-biphenyl-3-ylmethyl)-pyrrolidin-2-one], the IC50 on PDE4B (setting [1]) and on PDE4 (setting [2]) was 5 to 20 µM each time.

`COc1ccc(Cc2ccc(OCCN(C)C)cc2)cc1-c1cccc([N+](=O)[O-])c1` [P-164]: the IC50 was 5 to 20 µM at PDE4B (setting [1]) and less than 5 µM at PDE4 (setting [2]).

For `COc1ccc(Cc2ccc(OCCN3CCCC3)cc2)cc1-c1cccc([N+](=O)[O-])c1` [P-165], the IC50 at PDE4B (setting [1]) is 5 to 20 µM; at PDE4 (setting [2]), less than 5 µM.

With `COc1ccc(Cc2ccc(OCCN3CCCCC3)cc2)cc1-c1cccc([N+](=O)[O-])c1` [P-166], the IC50 at PDE4B (setting [1]) and on PDE4 (setting [2]) was less than 5 µM throughout.

Regarding `COc1ccc(Cc2ccc(NC(C)=O)cc2)c(F)c1-c1cccc(Br)c1` [P-168], the IC50 at PDE4B (setting [1]) and on PDE4 (setting [2]) was less than 5 µM in each case.

On to `COc1ccc(Cc2ccc(OCCN3CCOCC3)cc2)cc1-c1cccc([N+](=O)[O-])c1` [P-171], for which the IC50 at PDE4B (setting [1]) and at PDE4 (setting [2]) was less than 5 µM throughout.

As to `COc1ccc(CN2CCCC2=O)cc1-c1cccc(C(C)=O)c1` [P-172, 1-(3′-Acetyl-6-methoxy-biphenyl-3-ylmethyl)-pyrrolidin-2-one], the IC50 on PDE4B (setting [1]) and on PDE4 (setting [2]) was less than 5 µM each time.

`COc1ccc(Cc2ccc(-n3cccn3)cc2)c(O)c1-c1cccc([N+](=O)[O-])c1` [P-173, 6-Methoxy-3′-nitro-3-(4-pyrazol-1-yl-benzyl)-biphenyl-2-ol]: the IC50 at PDE4B (setting [1]) and at PDE4 (setting [2]) was less than 5 µM in each case.

In the case of `COc1ccc(Cc2c(C)noc2C)c(O)c1-c1cccc([N+](=O)[O-])c1` [P-174], the IC50 at PDE4B (setting [1]) and on PDE4 (setting [2]) was less than 5 µM each time.

Turning to `COc1ccc(Cc2ccc(CNC(=O)CN(C)C)cc2)c(F)c1-c1cccc([N+](=O)[O-])c1` [P-175], the IC50 on PDE4B (setting [1]) and on PDE4 (setting [2]) was less than 5 µM in each case.

On to `COc1ccc(Cc2ccc(F)cc2)c(N)c1-c1cccc([N+](=O)[O-])c1` [P-176, 3-(4-fluoro-benzyl)-6-methoxy-3′-nitro-biphenyl-2-ylamine], for which the IC50 on PDE4B (setting [1]) and at PDE4 (setting [2]) was less than 5 µM each time.

`COc1ccc(Cn2ccccc2=O)cc1-c1cccc(C(C)=O)c1` [P-179, 1-(3′-Acetyl-6-methoxy-biphenyl-3-ylmethyl)-1H-pyridin-2-one]: the IC50 at PDE4B (setting [1]) and at PDE4 (setting [2]) was 5 to 20 µM in each case.

Regarding `COc1ccc(Cc2ccc(C=O)cc2)c(O)c1-c1cccc([N+](=O)[O-])c1` [P-180, 4-(2-Hydroxy-6-methoxy-3′-nitro-biphenyl-3-ylmethyl)-benzaldehyde], the IC50 on PDE4B (setting [1]) and at PDE4 (setting [2]) was less than 5 µM throughout.

In the case of `COc1ccc(Cc2ccc(NC(N)=O)cc2)c(F)c1-c1cccc([N+](=O)[O-])c1` [P-181], the IC50 at PDE4B (setting [1]) and at PDE4 (setting [2]) was less than 5 µM in each case.

For the compound `COc1ccc(Cc2cccnc2Cl)c(O)c1-c1cccc(N)c1` [P-182], the values for the IC50 at PDE4B (setting [1]) and at PDE4 (setting [2]) were 21 to 40 µM and 5 to 20 µM, respectively.

Turning to `COc1ccc(Cc2ccc(CO)cc2)c(O)c1-c1cccc([N+](=O)[O-])c1` [P-183, 3-(4-Hydroxymethyl-benzyl)-6-methoxy-3′-nitro-biphenyl-2-ol], the IC50 at PDE4B (setting [1]) and on PDE4 (setting [2]) was less than 5 µM each time.

`COc1cccc(-c2cc(CN3CCCC3=O)ccc2OC)c1` [P-184, 1-(6,3′-Dimethoxy-biphenyl-3-ylmethyl)-pyrrolidin-2-one]: the IC50 at PDE4B (setting [1]) and on PDE4 (setting [2]) was 5 to 20 µM in each case.

Turning to `COc1ccc(Cc2ccc[nH]c2=O)c(O)c1-c1cccc(N)c1` [P-185], the IC50 on PDE4B (setting [1]) was 21 to 40 µM; at PDE4 (setting [2]) it was 5 to 20 µM.

On to `COc1ccc(CN2CCCC2=O)cc1-c1cccc(-c2nnco2)c1` [P-186], for which the IC50 at PDE4B (setting [1]) lay within 21 to 40 µM; on PDE4 (setting [2]), 20 to 40 µM.

`COc1ccc(Cc2ccc(F)cc2)c(F)c1-c1cccc(Cl)c1` [P-187]: the IC50 at PDE4B (setting [1]) and on PDE4 (setting [2]) was less than 5 µM each time.

Regarding `COc1ccc(CN2CCCCC2=O)cc1-c1cccc([N+](=O)[O-])c1` [P-188, 1-(6-Methoxy-3′-nitro-biphenyl-3-ylmethyl)-piperidin-2-one], the IC50 on PDE4B (setting [1]) and at PDE4 (setting [2]) was less than 5 µM each time.

Consider `COc1ccc(Cc2ccc(NC(C)=O)cc2)c(O)c1-c1cccc([N+](=O)[O-])c1` [P-190, N-[4-(2-Hydroxy-6-methoxy-3′-nitro-biphenyl-3-ylmethyl)-phenyl]-acetamide], for which the IC50 at PDE4B (setting [1]) and on PDE4 (setting [2]) was less than 5 µM each time.

For `COc1ccc(C[S+]([O-])c2ccc(F)cc2)cc1-c1cccc([N+](=O)[O-])c1` (stereo not drawn) [P-192, 5-(4-Fluoro-benzenesulfinylmethyl)-2-methoxy-3′-nitro-biphenyl], the IC50 on PDE4B (setting [1]) and at PDE4 (setting [2]) was 5 to 20 µM in each case.

Regarding `COc1ccc(Oc2ccc(F)cc2)cc1-c1cccc([N+](=O)[O-])c1` [P-193, 5-(4-Fluoro-phenoxy)-2-methoxy-3′-nitrobiphenyl], the IC50 at PDE4B (setting [1]) and on PDE4 (setting [2]) was less than 5 µM throughout.

As for `COc1ccc(Cn2cc(C#N)ccc2=O)cc1-c1cccc([N+](=O)[O-])c1` [P-195, 1-(6-Methoxy-3′-nitro-biphenyl-3-ylmethyl)-6-oxo-1,6-dihydro-pyridine-3-carbonitrile], the IC50 on PDE4B (setting [1]) was 21 to 40 µM; on PDE4 (setting [2]), 5 to 20 µM.

Regarding `COc1ccc(Cn2ccc(C#N)cc2=O)cc1-c1cccc([N+](=O)[O-])c1` [P-196, 1-(6-Methoxy-3′-nitro-biphenyl-3-ylmethyl)-2-oxo-1,2-dihydro-pyridine-4-carbonitrile], the IC50 on PDE4B (setting [1]) was 5 to 20 µM; at PDE4 (setting [2]), less than 5 µM.

For `COc1ccc(COc2ccc(N)cc2)c(F)c1-c1cccc(Br)c1` [P-199], the IC50 at PDE4B (setting [1]) and at PDE4 (setting [2]) was less than 5 µM in each case.

Take `COc1ccc(Cc2ccc(NS(C)(=O)=O)cc2)c(F)c1-c1cccc(Br)c1` [P-200]: the IC50 at PDE4B (setting [1]) and at PDE4 (setting [2]) was less than 5 µM throughout.

Regarding `Cn1nccc1Cc1ccc(OC(F)F)c(-c2ccc3c(c2)OCO3)c1` [P-201, 5-(3-Benzo[1,3]dioxol-5-yl-4-difluoromethoxy-benzyl)-1-methyl-1H-pyrazole], the IC50 on PDE4B (setting [1]) is 21 to 40 µM; on PDE4 (setting [2]), 5 to 20 µM.

Regarding `COc1ccc(Cn2ccc(C(N)=O)cc2=O)cc1-c1cccc([N+](=O)[O-])c1` [P-207, 1-(6-Methoxy-3′-nitro-biphenyl-3-ylmethyl)-2-oxo-1,2-dihydro-pyridine-4-carboxylic acid amide], the IC50 at PDE4B (setting [1]) is less than 5 µM; on PDE4 (setting [2]), 5 to 20 µM.

Consider `COc1ccc(Cn2cc(NC(N)=O)ccc2=O)cc1-c1cccc([N+](=O)[O-])c1` [P-208, [1-(6-Methoxy-3′-nitro-biphenyl-3-ylmethyl)-6-oxo-1,6-dihydro-pyridin-3-yl]-urea], for which the IC50 at PDE4B (setting [1]) and at PDE4 (setting [2]) was 5 to 20 µM throughout.

With `COc1ccc(Cn2ccccc2=O)cc1-c1cccc(Cl)c1` [P-209, 1-(3′-Chloro-6-methoxy-biphenyl-3-ylmethyl)-1H-pyridin-2-one], the IC50 was less than 5 µM on PDE4B (setting [1]) and 5 to 20 µM at PDE4 (setting [2]).

For the compound `COc1ccc(Cn2cc(NC(C)=O)ccc2=O)cc1-c1cccc([N+](=O)[O-])c1` [P-211, N-[1-(6-Methoxy-3′-nitro-biphenyl-3-ylmethyl)-6-oxo-1,6-dihydro-pyridin-3-yl]-acetamide], the IC50 at PDE4B (setting [1]) and at PDE4 (setting [2]) was 5 to 20 µM each time.

As for `COc1ccc(Cn2cc(C(N)=O)ccc2=O)cc1-c1cccc([N+](=O)[O-])c1` [P-212, 1-(6-Methoxy-3′-nitro-biphenyl-3-ylmethyl)-6-oxo-1,6-dihydro-pyridine-3-carboxylic acid amide], the IC50 on PDE4B (setting [1]) and on PDE4 (setting [2]) was 5 to 20 µM in each case.

For `COc1ccc(Cn2ccc(CN)cc2=O)cc1-c1cccc([N+](=O)[O-])c1` [P-213, 4-Aminomethyl-1-(6-methoxy-3′-nitro-biphenyl-3-ylmethyl)-1H-pyridin-2-one], the IC50 at PDE4B (setting [1]) was less than 5 µM; on PDE4 (setting [2]), 5 to 20 µM.

For `COc1ccc(Cn2ccc(N)cc2=O)cc1-c1cccc([N+](=O)[O-])c1` [P-215, 4-Amino-1-(6-methoxy-3′-nitro-biphenyl-3-ylmethyl)-1H-pyridin-2-one], the IC50 at PDE4B (setting [1]) and at PDE4 (setting [2]) was 5 to 20 µM throughout.

As for `COc1ccc(Cc2ccc(O)cc2)c(F)c1-c1cccc(Cl)c1` [P-216], the IC50 at PDE4B (setting [1]) and at PDE4 (setting [2]) was less than 5 µM throughout.

For the compound `COc1ccc(Cc2cccc(O)c2)c(F)c1-c1cccc(Cl)c1` [P-217], the IC50 on PDE4B (setting [1]) and on PDE4 (setting [2]) was less than 5 µM throughout.

As to `COc1ccc(CN2CCCC2=O)cc1-c1cccc(Cl)c1` [P-218, 1-(3′-chloro-6-methoxy-biphenyl-3-ylmethyl)-pyrrolidin-2-one], the IC50 on PDE4B (setting [1]) and on PDE4 (setting [2]) was less than 5 µM throughout.

As to `COc1ccc(Cc2ccc(OC(N)=O)cc2)c(F)c1-c1cccc(Cl)c1` [P-221], the IC50 against PDE4B and on PDE4 was less than 5 µM each time.

Turning to `COc1ccc(Cc2cccc(OC(N)=O)c2)c(F)c1-c1cccc(Cl)c1` [P-222], the IC50 against PDE4B and at PDE4 was less than 5 µM each time.
